# Values quoted from earlier work as cited in the CATMoS acute toxicity set (Mansouri et al. 2021).
# Values joined by “and” are separate entries in the source; they are usually repeats but may differ in a detail not shown here. Equal values may be shown once.
# Experiment: rat acute oral toxicity
# Conditions: in vivo
row,SMILES,LD50
1,CN1[C@@H]2CC[C@H]1C[C@@H](OC(c1ccccc1)c1ccc(Cl)cc1)C2 (stereo partly specified),364 mg/kg
2,CNCCCC1(C#N)c2ccccc2CCc2ccccc21,889 mg/kg
3,CCCCOP(=O)(OCCCC)Oc1ccc2c(C)c(Cl)c(=O)oc2c1,63 mg/kg
4,CC[C@]1(CO)CCCN2CCc3c([nH]c4ccccc34)[C@@H]21,1200 mg/kg
5,COc1cc2c(cc1OC)[C@@H]1C(=O)c3ccc4c(c3O[C@@H]1CO2)C[C@H](C(C)C)O4,2500 mg/kg
6,O=C1N=C2c3ccccc3N=CN2C1=Cc1ccc([N+](=O)[O-])cc1,1290 mg/kg
7,O=C(O)CCCCCCCCC(=O)O,14400 mg/kg
8,OCCN1CCN(CCCN2c3ccccc3Sc3cc(Cl)cnc32)CC1,657 mg/kg
9,COc1cc(C=CC(=S)N2CCOCC2)cc(OC)c1OC,1350 mg/kg
10,CCOP(=S)(OCC)SCn1nc(-c2ccccc2)ccc1=O,555 mg/kg
11,CCCCCCCCCCCCCC[N+](C)(C)C,3900 mg/kg
12,CC(C)C(CCN(C)C)(C(N)=O)c1cccc2ccccc12 (stereo unspecified),1030 mg/kg
13,N=C(N)NCCC[C@H](N)C(=O)O,12000 mg/kg
14,CN(N=O)c1ccc(N=Nc2ccccc2)cc1,1200 mg/kg
15,CN1CC[C@@]2(C)c3cc(OC(=O)NCCCCCCCCCCN4CCCCC4)ccc3N(C)[C@@H]12,15.3 mg/kg
16,Cc1ccc(C(=O)C(C)CN2CCCCC2)cc1 (stereo unspecified),1450 mg/kg
17,CC(C)N1CCCC1=O,2900 mg/kg
18,CN(C)N,122 mg/kg and 196 mg/kg
19,NC(N)=NCC=Cc1ccccc1,456 mg/kg
20,CC(=O)c1cccc(Oc2ccccc2)c1,4160 mg/kg
21,C=C[Si](OCCOC)(OCCOC)OCCOC,2960 mg/kg
22,CC(C)(C)N,96 mg/kg
23,Cc1ccc(C(=O)c2ccccc2)c(C(=O)O)c1,5600 mg/kg
24,CNC(=O)ON=C(SC)c1ccc(Cl)cc1,670 mg/kg
25,Cc1ccc(C)n1Nc1ccc(N2CCOCC2)nn1,2250 mg/kg
26,CC(C)(O)c1ccccc1,1300 mg/kg

row,SMILES,LD50
1,CCC1OCC(=NOC(=O)NC)S1 (stereo unspecified),60 mg/kg
2,CNC(=O)ON=C1CSCCSC1,400 mg/kg
3,CC(=O)OC(C)(C)Cc1ccccc1,3300 mg/kg
4,CCN(N=O)C(C)OC (stereo unspecified),1000 mg/kg
5,CCCCN(CCCC)N=O,1200 mg/kg
6,Cc1cc(N)ccc1N,98 mg/kg and 102 mg/kg
7,O=[N+]([O-])c1ccc(O/N=C/c2cc(Br)c(O)c(Br)c2)c([N+](=O)[O-])c1,1100 mg/kg
8,CC(C)(C)C(=O)C(Oc1ccc(Cl)cc1)n1ccnc1 (stereo unspecified),400 mg/kg
9,Clc1ccc(C(OCCN2CCCCC2)c2ccccc2)cc1 (stereo unspecified),1990 mg/kg
10,NCCOCNc1ccccc1,0.625 mg/kg
11,O=C(O)CCC(=O)OC[C@@H](NC(=O)C(Cl)Cl)[C@H](O)c1ccc([N+](=O)[O-])cc1,8300 mg/kg
12,NC(Cc1ccc(N(CCCl)CCCl)cc1)C(=O)O (stereo unspecified),52 mg/kg and 105 mg/kg
13,Cc1cc(=O)[nH]o1,3110 mg/kg
14,CCNC1C2CCC(C2)C1c1ccccc1 (stereo unspecified),83 mg/kg
15,O=C1CN(/N=C/c2ccc([N+](=O)[O-])o2)C(O)=N1,1490 mg/kg
16,OCC[N+](CCO)(CCO)CCO,2250 mg/kg
17,CC(COCCN)COCCCN (stereo unspecified),242 mg/kg
18,CCc1cccc2cc(C(O)CNC(C)(C)C)oc12 (stereo unspecified),750 mg/kg
19,C=C(C)C(=O)OCC(C)C,9590 mg/kg
20,CCOc1ccc(N(C)C(=O)C(C(C)O)N(C)C)cc1 (stereo unspecified),1350 mg/kg
21,Cc1ncc2c(c1O)CSSC2,1110 mg/kg
22,CC(N)=[Se],10 mg/kg
23,Cc1ccc(O)c(-n2nc3ccccc3n2)c1,10000 mg/kg
24,CS(=O)(=O)c1ccc2c(c1)N(CCCN1CCC(C(N)=O)CC1)c1ccccc1S2,976 mg/kg
25,C=C(C)C#N,120 mg/kg
26,CCc1ccc(C)nc1,368 mg/kg

row,SMILES,LD50
1,CCCN=C(C(OCC)c1ccccc1)N1CCCCCC1 (stereo unspecified),220 mg/kg
2,Cc1ccccc1CN(C)N=O,90 mg/kg
3,COc1ccc2c(c1)c(CC(=O)Oc1ccccc1C(=O)O)c(C)n2C(=O)c1ccc(Cl)cc1,59.5 mg/kg
4,CCOC(=O)COP(=S)(OCC)OCC,1000 mg/kg
5,CCc1ccc(C(=O)c2ccccc2)c(C(=O)O)c1,4450 mg/kg
6,Nc1ccc(Cl)cc1Cl,1600 mg/kg
7,Cc1ncc(CO)c(CN)c1O,7500 mg/kg
8,CC(C)N1C(=O)N(c2ccccc2)CSC1=NC(C)(C)C,2200 mg/kg
9,Cn1cc[nH]c1=S,2250 mg/kg
10,CSCC(=NO)C(C)(C)C,813 mg/kg
11,NNC(=O)CSc1cc(Oc2ccccc2)ncn1,220 mg/kg
12,CCC(C)C(CC)C(N)=O (stereo unspecified),760 mg/kg
13,CC[N+](C)(C)CCC(C(N)=O)(c1ccccc1)c1ccccc1,1350 mg/kg
14,OCCOCCOCCN1CCN(C(c2ccccc2)c2ccc(Cl)cc2)CC1 (stereo unspecified),920 mg/kg
15,CCN(CC)CC1CCCCN1CC(=O)N1c2ccccc2C(=O)Nc2cccnc21 (stereo unspecified),1530 mg/kg
16,CC(=O)C=Cc1ccco1,325 mg/kg
17,CCCCCCS,1250 mg/kg
18,O=C1c2cccc(Br)c2C(=O)C1c1ccccc1 (stereo unspecified),745 mg/kg
19,CCN(CC)CC(=O)c1c2c(cc3c1CCC3)CCC2,2220 mg/kg
20,CCCSCSP(=S)(OCC)OCC,2.8 mg/kg
21,CCOC(=O)Nc1ccc(NC(Cc2ccccc2)c2ccccc2)nc1N (stereo unspecified),163 mg/kg
22,OCC(Cl)CCl (stereo unspecified),90 mg/kg
23,C=CCOCC(CC)(CO)CO,4930 mg/kg
24,Cc1ccc2c(c1)CC(=O)c1cc(C(C)C(=O)O)ccc1S2 (stereo unspecified),100 mg/kg
25,Cc1ccc(S(=O)(=O)NN)cc1,283 mg/kg
26,Cc1ccccc1OCC(O)CN(NC=NC(=O)c1ccccc1)C(C)C (stereo unspecified),2930 mg/kg

row,SMILES,LD50
1,CC(C)NCC(O)COc1cccc2c1OCC(O)C2 (stereo unspecified),1840 mg/kg
2,O=C(O)c1ccc(Cl)c([N+](=O)[O-])c1,3150 mg/kg
3,CCCCCCCCCCCCCCCC(=O)OCC(=O)[C@@]1(O)[C@H](C)C[C@H]2[C@@H]3CCC4=CC(=O)C=C[C@]4(C)[C@@]3(F)[C@@H](O)C[C@@]21C,315 mg/kg
4,Cn1nc(-c2ccccc2)c2conc2c1=O,1000 mg/kg
5,CCOP(=O)(OCC)SCSCC,0.25 mg/kg
6,C=COCCSCCCC,2830 mg/kg
7,CC(C)(C)NCC(O)COc1cccc2c1C[C@H](O)[C@H](O)C2 (stereo partly specified),5300 mg/kg
8,Cc1c(N(C)C)c(=O)n(-c2ccccc2)n1C,285 mg/kg
9,CCCCOC(CBr)c1ccccc1 (stereo unspecified),250 mg/kg
10,Cc1cc(Cl)ccc1Cn1nc(C(=O)O)c2ccccc21,4000 mg/kg
11,CC1(S(=O)(=O)O)CC(=O)c2ccccc2C1=O (stereo unspecified),4510 mg/kg
12,CCOP(=S)(CCl)Oc1ccc(C#N)cc1OC (stereo unspecified),71 mg/kg
13,CCC1NC(=O)c2cc(N)ccc2O1 (stereo unspecified),1890 mg/kg
14,Cc1ccccc1C(OC1CC2CCC(C1)N2C)c1ccccc1 (stereo unspecified),400 mg/kg
15,O=C(NC[P+](CO)(CO)CO)NC[P+](CO)(CO)CO,245 mg/kg
16,COc1cc(N)c(Cl)cc1C(=O)NC1CCN(CCCOc2ccc(F)cc2)CC1OC (stereo unspecified),4170 mg/kg
17,COc1cc2c3c(c4ccc(OC)c(OC)c4c2cc1OC)CN1CCCC1C3 (stereo unspecified),65 mg/kg
18,O=NN1CCOC1,1500 mg/kg
19,CC(=O)Nc1ccc2c(c1)sc1ccccc12,1200 mg/kg
20,O=C(CCl)CCl,20 mg/kg
21,CNC(=O)CSP(=O)(OC)SC (stereo unspecified),100 mg/kg
22,CS(=O)(=O)N(Cc1cccnc1)c1ccc(F)cc1F,1060 mg/kg
23,Cc1ccc(C)c([N+](=O)[O-])c1,2440 mg/kg
24,CCOc1ccc(-c2ccccc2)cc1CN1CCCC1,30 mg/kg
25,COP(=S)(OC)SC(C(=O)OC(C)C)c1ccccc1 (stereo unspecified),205 mg/kg
26,CCCCCCCCCCCCOC(=O)CS(=O)(=O)O,700 mg/kg

row,SMILES,LD50
1,ClCC(Cl)=C(Cl)C(Cl)Cl,472 mg/kg
2,CC(C)COC(=O)c1ccccc1O,1560 mg/kg
3,CCC12CCCN3CCc4c(n(c5cc(Br)ccc45)C(O)(C(=O)OC)C1)C32 (stereo unspecified),1740 mg/kg
4,N#CS/C=C/SC#N,77 mg/kg
5,O=C1C=CC(=O)c2ccccc21,190 mg/kg
6,CC(NNC(=O)c1ccccc1)c1ccccc1 (stereo unspecified),675 mg/kg
7,CCOC(=O)C1(c2ccccc2)CCN(CCc2ccc(N)cc2)CC1,175 mg/kg
8,CC(C)c1noc2nc(C(C)(C)C)ncc12,15400 mg/kg
9,CCS(=O)(=O)CCn1c([N+](=O)[O-])cnc1C,2710 mg/kg
10,Cc1ccc([N+](=O)[O-])cc1N,574 mg/kg
11,CCOP(=O)(Cc1ccc(-c2nc3ccccc3s2)cc1)OCC,1560 mg/kg
12,COP(=O)(NC=O)SC (stereo unspecified),190 mg/kg
13,CCN(CCC(=O)OC)c1ccccc1,2450 mg/kg
14,CCCCNC(=O)c1ccccc1,5140 mg/kg
15,CCC(CO)NC(=O)C1C=C2c3cccc4[nH]cc(c34)CC2N(C)C1 (stereo unspecified),93 mg/kg
16,CCC(C)(C)c1ccc(O)c(C(C)(C)CC)c1,330 mg/kg
17,OCC(O)Oc1ccc(Cl)cc1Cl (stereo unspecified),1070 mg/kg
18,CC(Cc1ccccc1)NCCN1CON=C1c1ccccc1 (stereo unspecified),649 mg/kg
19,Cc1cccc(NC(=S)N(C)C)c1,2200 mg/kg
20,CC[P+](c1ccccc1)(c1ccccc1)c1ccccc1,200 mg/kg and 79 mg/kg
21,CCOc1ccc(C=O)cc1,2100 mg/kg
22,OCCC1CCCCC1,940 mg/kg
23,COc1ccc(N)c(S(=O)(=O)O)c1,10000 mg/kg
24,CNC(=N)NC(=O)Nc1c(C)cccc1C,187 mg/kg and 184 mg/kg
25,Nc1ccc(C(=O)Nc2ccccc2N)cc1,95 mg/kg
26,CN(CCN(C)N=O)N=O,125 mg/kg

row,SMILES,LD50
1,CC(C)NC(=O)N1CC(=O)N(c2cc(Cl)cc(Cl)c2)C1=O,3500 mg/kg
2,C=CN(C(C)=O)c1ccccc1,2460 mg/kg
3,CCCC(CCC)C(=O)O,670 mg/kg
4,CCNc1nc(Cl)nc(N(CC)CC)n1,594 mg/kg
5,CCOP(=O)(Oc1ccc(Cl)cc1Cl)Oc1ccc(Cl)cc1Cl,6200 mg/kg
6,ClCC(Cl)(Cl)Cl,670 mg/kg
7,N#CC(Cl)(Cl)Cl,250 mg/kg
8,CCOP(=S)(OCC)Oc1ccc([N+](=O)[O-])cc1Cl,10 mg/kg
9,CCCCc1c(OC(=O)c2cc(OC)c(OC)c(OC)c2)n(-c2ccccc2)n(-c2ccccc2)c1=O,3000 mg/kg
10,CCCCN(CC)c1c([N+](=O)[O-])cc(C(F)(F)F)cc1[N+](=O)[O-],10000 mg/kg
11,CCCOC(C(=O)OC1CCN(C)CC1)(c1ccccc1)c1ccccc1,2250 mg/kg
12,O=P1(N(CCCl)CCCl)NCCCO1 (stereo unspecified),94 mg/kg
13,Cc1ccccc1C(C)c1ccccc1 (stereo unspecified),1750 mg/kg
14,CCOc1cc(OP(=S)(OC)OC)nc(CC)n1,1800 mg/kg
15,CCCCC(=O)Cc1ccccc1,4400 mg/kg
16,CCCCCCCCCCCC(=O)OCCSC#N,500 mg/kg
17,CCSC(=S)N(C)C,550 mg/kg
18,CCN(CC)S(=O)(=O)c1c(Cl)c(Cl)c(Cl)c2[nH]c(C(F)(F)F)nc12,11.2 mg/kg
19,CC(=CC(O)(C(F)(F)F)C(F)(F)F)CC(O)(C(F)(F)F)C(F)(F)F,18 mg/kg
20,CCS(=O)Cc1ccccc1OC(=O)NC (stereo unspecified),150 mg/kg
21,CCOc1ccccc1N1CCN(CCCCc2ccc3c(c2)CCC(=O)N3)CC1,500 mg/kg
